Data from patent publication US20030211942A1, “Aryl sulfonyl amino carbonyl triazole based selective herbicides” (priority 2000, published 2003).

Legend:
Test in all cases: Post-emergence/greenhouse herbicidal test
Type in all cases: in vivo
Abutilon theophrasti = details: 30 g of ai/ha, post-emergence, about 3 weeks
Description: (§1) Procarbazone- and flucarbazone-sodium were used as 70 WG formulation. Fenoxaprop-P-ethyl was used in a mixture with mefenpyr-diethyl (75 g of mefenpyr-diethyl/l) as Ralon® Super 69 EW. Cinidon-ethyl and florasulam and iodosufuron in a mixture with mefenpyr-diethyl were used in the form of the finished formulations Lotus® 200 EC, Primus® 50 SC and Hussar® 5 WG (15% mefenpyr-diethyl), respectively. Amicarbazone was used as 70 WG formulation.
(§2) In pre- and post-emergence experiments, the spray liquor is usually admixed with a surfactant (Renex 36), at a concentration of 0.1%.
(§3) Test plants are grown under controlled conditions (temperature and light).
(§4) Following the spray application, the plant containers are kept in a greenhouse under constant light and temperature conditions.
(§5) After about 3 weeks, the degree of damage to the plants is rated in % damage in comparison to the development of the untreated control.
(§6) 0% =no damage (like untreated control)
(§7) 100% =total destruction/damage

Avena fatua = tested on: Avena fatua
Description: as §1, §2, §3, §4, §5, §6, §7

Cassia tora = details: post-emergence, about 3 weeks
Description: as §1, §2, §3, §4, §5, §6, §7

Eriochloa villosa = details: post-emergence, about 3 weeks
Description: as §1, §2, §3, §4, §5, §6, §7

Matricaria inodora = details: application rate 30 g ai/ha
Description: as §1, §2, §3, §4, §5, §6, §7

Stellaria media = details: post-emergence, about 3 weeks
Description: as §1, §2, §3, §4, §5, §6, §7

Viola arvensis = details: post-emergence, about 3 weeks
Description: as §1, §2, §3, §4, §5, §6, §7

Xanthium strumarium = details: post-emergence, about 3 weeks
Description: as §1, §2, §3, §4, §5, §6, §7

Alopecurus myosuroides = details: post-emergence, about 3 weeks
Description: as §1, §2, §3, §4, §5, §6, §7

Bromus secalinus = details: post-emergence, about 3 weeks
Description: as §1, §2, §3, §4, §5, §6, §7

Cyperus esculentus = details: post-emergence, about 3 weeks
Description: as §1, §2, §3, §4, §5, §6, §7

Echinochloa crus-galli = details: post-emergence, about 3 weeks
Description: as §1, §2, §3, §4, §5, §6, §7

Lolium perenne = details: post-emergence, about 3 weeks
Description: as §1, §2, §3, §4, §5, §6, §7

Amaranthus retroflexus = details: post-emergence, about 3 weeks
Description: as §1, §2, §3, §4, §5, §6, §7

Chenopodium album = details: post-emergence, about 3 weeks
Description: as §1, §2, §3, §4, §5, §6, §7

Datura strumarium = details: post-emergence, about 3 weeks
Description: as §1, §2, §3, §4, §5, §6, §7

Galium aparine = details: post-emergence, about 3 weeks
Description: as §1, §2, §3, §4, §5, §6, §7

Ipomoea hederacea = details: post-emergence, about 3 weeks
Description: as §1, §2, §3, §4, §5, §6, §7

Polygonum convolvolus = details: post-emergence, about 3 weeks
Description: as §1, §2, §3, §4, §5, §6, §7

Solanum nigrum = details: post-emergence, about 3 weeks
Description: as §1, §2, §3, §4, §5, §6, §7

`CC(C)c1nn(C(=O)NC(C)(C)C)c(=O)n1N` [Amicarbazone, 4-amino-N-(1,1-dimethyl-ethyl)-4,5-dihydro-3-(1-methyl-ethyl)-5-oxo-1H-1,2,4-triazole-1-carboxamide] was tested, and the Abutilon theophrasti observed (Abutilon theophrasti) was 80%, the Avena fatua observed (Avena fatua; application rate 30 g ai/ha) was 0 and the Cassia tora observed (Cassia tora; 30 g of ai/ha) was 40%. For the same compound, the Eriochloa villosa observed (Eriochloa villosa; 125 g of ai/ha) was 70%, the Matricaria inodora observed (Matricaria inodora) was 60 and the Stellaria media observed (Stellaria media; 60 g of ai/ha) was 80%. For the same compound, the Viola arvensis observed (Viola arvensis; 30 g of ai/ha) was 70% and the Xanthium strumarium observed (Xanthium strumarium; 30 g of ai/ha) was 80%.

In the case of `CCOC(=O)C(Cl)=Cc1cc(N2C(=O)C3=C(CCCC3)C2=O)ccc1Cl` [Cinidon-ethyl, ethyl 2-chloro-3-[2-chloro-5-(1,3,4,5,6,7-hexahydro-1,3-dioxo-2H-isoindol-2-yl)-phenyl]-2-propanoate], the Alopecurus myosuroides observed (Alopecurus myosuroides; 8 g of ai/ha) is reported as 0%, the Alopecurus myosuroides observed (Alopecurus myosuroides; 15 g of ai/ha) is reported as 0% and the Avena fatua observed (Avena fatua; 8 g of ai/ha, post-emergence, about 3 weeks) is reported as 0%. For the same compound, the Avena fatua observed (Avena fatua; 15 g of ai/ha, post-emergence, about 3 weeks) was 10%, the Bromus secalinus observed (Bromus secalinus; 8 g of ai/ha) was 0% and the Bromus secalinus observed (Bromus secalinus; 15 g of ai/ha) was 20%. For the same compound, the Cassia tora observed (Cassia tora; 15 g of ai/ha) was 95%, the Cyperus esculentus observed (Cyperus esculentus; 8 g of ai/ha) was 0% and the Cyperus esculentus observed (Cyperus esculentus; 15 g of ai/ha) was 20%. The Echinochloa crus-galli observed (Echinochloa crus-galli; 8 g of ai/ha) was 0%, the Echinochloa crus-galli observed (Echinochloa crus-galli; 15 g of ai/ha) was 0% and the Eriochloa villosa observed (Eriochloa villosa; 15 g of ai/ha) was 30%. It also gave a Lolium perenne observed (Lolium perenne; 8 g of ai/ha) of 0%, a Viola arvensis observed (Viola arvensis; 8 g of ai/ha) of 0% and a Viola arvensis observed (Viola arvensis; 15 g of ai/ha) of 30%.

For `CCOC(=O)[C@@H](C)Oc1ccc(Oc2nc3ccc(Cl)cc3o2)cc1` [Fenoxaprop-P-ethyl, ethyl (R)-2-[4-(6-chloro-benzoxazol-2-yl-oxy)-phenoxy]-propanoate], the Alopecurus myosuroides observed (Alopecurus myosuroides; 15 g of ai/ha) was 0%, the Alopecurus myosuroides observed (Alopecurus myosuroides; 30 g of ai/ha) was 0% and the Amaranthus retroflexus observed (Amaranthus retroflexus; 30 g of ai/ha) was 0%. The Amaranthus retroflexus observed (Amaranthus retroflexus; 60 g of ai/ha) was 0%, the Bromus secalinus observed (Bromus secalinus; 30 g of ai/ha) was 0% and the Bromus secalinus observed (Bromus secalinus; 60 g of ai/ha) was 0%. It also gave a Chenopodium album observed (Chenopodium album; 30 g of ai/ha) of 0%, a Chenopodium album observed (Chenopodium album; 60 g of ai/ha) of 0% and a Datura strumarium observed (Datura strumarium; 30 g of ai/ha) of 0%. The Datura strumarium observed (Datura strumarium; 60 g of ai/ha) was 0%, the Galium aparine observed (Galium aparine; 15 g of ai/ha) was 0% and the Galium aparine observed (Galium aparine; 30 g of ai/ha) was 0%. It also gave a Galium aparine observed (Galium aparine; 60 g of ai/ha) of 0%, an Ipomoea hederacea observed (Ipomoea hederacea; 30 g of ai/ha) of 0% and an Ipomoea hederacea observed (Ipomoea hederacea; 60 g of ai/ha) of 0%. For the same compound, the Lolium perenne observed (Lolium perenne; 30 g of ai/ha) was 0%, the Lolium perenne observed (Lolium perenne; 60 g of ai/ha) was 0% and the Polygonum convolvolus observed (Polygonum convolvolus; 30 g of ai/ha) was 0%. It also gave a Polygonum convolvolus observed (Polygonum convolvolus; 60 g of ai/ha) of 0%, a Solanum nigrum observed (Solanum nigrum; 15 g of ai/ha) of 0% and a Solanum nigrum observed (Solanum nigrum; 30 g of ai/ha) of 0%. It also gave a Solanum nigrum observed (Solanum nigrum; 60 g of ai/ha) of 0%, a Stellaria media observed (Stellaria media; 30 g of ai/ha) of 0% and a Stellaria media observed (Stellaria media; 60 g of ai/ha) of 0%. It also gave a Viola arvensis observed (Viola arvensis; 15 g of ai/ha) of 0%, a Viola arvensis observed (Viola arvensis; 30 g of ai/ha) of 0% and a Viola arvensis observed (Viola arvensis; 60 g of ai/ha) of 0%. The Xanthium strumarium observed (Xanthium strumarium; 30 g of ai/ha) was 0% and the Xanthium strumarium observed (Xanthium strumarium; 60 g of ai/ha) was 0%.
